Data as given in PMC6274457, “Characterization of a New Flavone and Tyrosinase Inhibition Constituents from the Twigs of Morus alba L” (Molecules, 2016).

Molecular target: T1, Mushroom tyrosinase (Agaricus bisporus, UniProt C7FF04)
Assay: Mushroom tyrosinase inhibitory assay (spectrophotometric, L-tyrosine substrate)
Type: biochemical
Details: qualitative statement; comparison with positive control kojic acid where stated
Method: The compounds were firstly dissolved in DMSO at a concentration of 1.0 mg/mL and then diluted to different concentrations with DMSO. […] The reaction mixtures (3.0 mL) were vortexed and the initial absorbance at 492 nm was measured. After incubation for 20 min at 37 °C, the final absorbance at the same wavelength was taken. […] B1 is the absorbance at 492 nm of test sample at 0 min, B2 is the absorbance at 492 nm of test sample at 20 min.

T1 sequence (G1K3P4 entry or part of it): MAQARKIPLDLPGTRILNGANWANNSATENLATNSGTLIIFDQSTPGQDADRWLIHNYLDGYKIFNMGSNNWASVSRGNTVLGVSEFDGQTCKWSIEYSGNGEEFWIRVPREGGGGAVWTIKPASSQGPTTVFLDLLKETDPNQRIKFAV
T1 sequence (C7FF04 1-392): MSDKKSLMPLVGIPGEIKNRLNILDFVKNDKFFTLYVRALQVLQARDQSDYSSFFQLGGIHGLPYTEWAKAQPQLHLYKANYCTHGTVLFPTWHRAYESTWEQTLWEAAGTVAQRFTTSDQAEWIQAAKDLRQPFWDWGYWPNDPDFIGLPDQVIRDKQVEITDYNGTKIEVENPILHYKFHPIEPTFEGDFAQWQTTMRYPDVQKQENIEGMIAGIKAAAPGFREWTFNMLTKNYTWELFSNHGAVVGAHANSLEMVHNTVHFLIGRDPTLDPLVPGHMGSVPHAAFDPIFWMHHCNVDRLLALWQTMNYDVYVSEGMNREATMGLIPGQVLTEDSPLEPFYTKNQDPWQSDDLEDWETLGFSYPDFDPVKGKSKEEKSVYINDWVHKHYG

Row | Mushroom tyrosinase inhibitory activity, result in words | SMILES
1 | much stronger | O=C1CC(c2ccc(O)cc2O)Oc2cc(O)cc(O)c21 (stereo not shown) [Steppogenin (2), steppogenin]
2 | weak | C=C(C)C(=O)Cc1c(-c2ccc(O)cc2O)oc2c3c(cc(O)c2c1=O)OC(C)(C)C=C3 [Morusone (1), 2-(2,4-dihydroxyphenyl)-5-hydroxy-8,8-dimethyl-3-(3-methyl-2-oxo-but-3-enyl)-8H-pyrano[2,3-f]chromen-4-one]
3 | much stronger | CC(C)=CCc1c(O)ccc(C(=O)/C=C/c2ccc(O)cc2O)c1O [Morachalcone A (4), morachalcone A]
4 | much stronger | O=C(/C=C/c1ccc(O)cc1O)c1ccc(O)cc1O [2,4,2′,4′-Tetrahydroxychalcone (3), 2,4,2′,4′-Tetrahydroxychalcone]

Further lines, the compound ahead of its results:

Row | SMILES | Mushroom tyrosinase inhibitory activity, result in words
5 | Oc1cc(O)cc(-c2cc3ccc(O)cc3o2)c1 [Moracin M (14), moracin M] | much stronger
6 | Oc1cc(O)cc(/C=C/c2ccc(O)cc2O)c1 [Oxyresveratrol (5), oxyresveratrol] | much stronger

Molecular target: T1, Mushroom tyrosinase
Assay: not given
Set-up: method as in PMID 26616992
Details: single resorcinol derivatives, weak activity; read-out: Tyrosinase inhibitory activity IC50; cited from earlier work

Row | SMILES | IC50
7 | CC(=O)c1ccc(O)cc1O [2,4-dihydroxyacetophenone] | > 200 µM
